Six compounds from patent publication US20100144868A1, “Novel Neuroprotective Compounds and Uses Thereof” (Ramot At Aviv University Ltd., priority 2005, published 2010) can be followed below.

Data set [1] has as its system MOG-induced EAE in NOD mice. In words: Efficacy in MOG-induced EAE in NOD mice, daily treatment from day 20 to day 70. Type of data set: in vivo. The conditions noted are these: for Phase II Second Peak Mean Score Disease / Phase III Third Peak Mean Score Disease / Phase IV Secondary Progressive Mean Score Disease: scale 0-5; for Phase IV Secondary Progressive Mean Score Disease: day 70; for Cumulative Score: days 21-70; for Prevalence of Disease with score above 1.5: treated daily from day 20 after immunization to day 70; for Severity of EAE (in words): compared to carboxyfullerene treated and vehicle (PBS) treated mice, Table 3, FIG. 3. The procedure: Non-obese diabetic (NOD) mice were purchased from Jackson laboratories. The mice were maintained in viral antibody-free (VAF) facility at Harvard Institutes of Medicine animal care facility and used at 10 weeks of age.
Myelin oligodendrocyte glycoprotein (MOG 35-55) was synthesized at the peptide/protein facility at the center for neurologic disease at BWH, Boston, Mass., USA.
(§1) Mice were immunized S.C. with 150 μg of MOG 35-55 peptide in […].
(§2) Pertussis toxin was given I.V. (150 ng per mouse) at the time of immunization and 48 hours later. The severity of disease was evaluated daily on the following scale: 0 for no clinical symptoms; 1 for distal tail weakness or tail atonia; 2 for impaired righting reflex and slight hind limb paralysis; 3 for complete paralysis affecting of both hind limbs; 4 for complete paralysis affecting of both hind limbs and fore limb weakness, or moribund state; and 5 for death.

The subject of data set [2] is MOG-induced EAE in NOD mice. Nature of the data set: Efficacy in MOG-induced EAE in NOD mice, Compound 20 at two doses compared to NBQX, daily from day 23. The class given is in vivo. The procedure: as §1, §2
The conditions of data set [3]: for Increase of maximal aqueous solubility: with a 10 fold increase in DMSO content.
Protocol: 20 mg of each of the tested hybrid compounds of the present invention was dissolved in 0.2 ml of DMSO and then diluted with 200 ml, 40 ml, 20 ml and 10 ml of water to obtain a 0.1%, 0.5% 0.1% and 2.0% DMSO content in the aqueous solution, respectively. Each aqueous solution was sonicated for 2 minutes, filtered through 0.2 micron filter and centrifuged at 14,000 rpm for 3 minutes. UV-VIS spectra were obtained thereafter at 476 nm to determine the solubilized fraction of the tested hybrid compound.
Data set [4] has as its system spinal cord of EAE-induced NOD mice. In words: Histological staining of spinal cord sections of EAE-induced NOD mice (Bielschowsky silver, Luxol fast blue). Type of data set: in vivo. The procedure: The attenuation of EAE progress in model animals was further tested by following pathological findings thereof in 7 μm coronal spinal cord section samples of the tested mice under cryogenic conditions. The axonal pathology analysis was performed on day 63 post-immunization by immunostaining of spinal cord sections. Spinal cord sections from mice were fixed in 4% paraformaldehyde overnight followed by 4.5% sucrose for 4 hours, then 20% sucrose for overnight at 4° C. Spinal cord sections were frozen and stored until used at −80° C.
Histological staining studies of spinal cord sections were preformed according to the Bielschowsky silver staining method, which specifically stains nerve fibers and axons so as to appear in black when observed under an optical microscope, and according to the Luxol fast blue staining method, which specifically stains myelin/myelinated axons so as to stain the myelin in blue-green while the neuron remains pink when observed under an optical microscope. Reduction in the degree of staining expresses damage to the neuron.
The Bielschowsky silver staining was performed as described before in Litchfield and Nagy, Acta Neuropathol (Berl) 2001, 101(1), pp. 17-21. Briefly, spinal cord sections were place in pre-warmed solution of 10% silver nitrate placed in a 40° C. oven and shaken for 15 minutes until sections became light brown in color, and thereafter rinsed in water. The spinal cord sections were thereafter placed back in the same ammonium silver solution and placed in a 40° C. oven for additional 30 minutes and rinse in water followed by dehydration in 95% ethyl alcohol, absolute alcohol and xylene.
The Luxol fast blue staining was perform as described before in Dolcetta et al J Neurosci Res.; 81(4):597-604. Briefly, spinal cord sections were placed in luxol fast blue solution in a 56° C. oven for 16 hours and rinsed with 95% ethyl alcohol and distilled water. Thereafter the spinal cord sections were placed in carbonate solution for 30 seconds and rinsed in water followed by dehydration in 95% ethyl alcohol, absolute alcohol and xylene. […]

Setting [5] is: 0.1% DMSO content in final aqueous solution.
[6] abbreviates: 0.5% DMSO content in final aqueous solution.

“Also recorded” adds a separate entry of the source. Where two headings read alike, the source gives them in different places. Marks after values point to notes of the source that are not given here.

Turning to `O=C(O)C1(C(=O)O)C2=C1C1C3C4=c5c6c7c8c(c9c(c%10c%11c%12c%13c%14c%15c%16c(c2c3c%16c5c%14c6c%12c%108)C=CC%152C(C(=O)O)(C(=O)O)C%132C=C%11)C9(C(=O)O)C(=O)O)C2C=CC1C4C72` (stereo not drawn) [Carboxyfullerene, C3-stereoisomer of trimalonic acid derivative of a C60 fullerene, reference compound], the “Phase II Second Peak Mean Score Disease” value in data set [1] (day 26) is recorded as 1.00. Further, the “Phase II Second Peak Mean Score Disease” value in data set [1] (day 27) was found to be 0.85. Also, in data set [1] (day 31), the “Phase III Third Peak Mean Score Disease” value stood at 1.15. For the same compound, in data set [1] (day 38), the “Phase III Third Peak Mean Score Disease” value came out at 1.45. In data set [1], the “Phase IV Secondary Progressive Mean Score Disease” value came to 2.65, the “Cumulative Score” value is on record as 87.45 and the “Prevalence of Disease with score above 1.5” value (“Prevalence of Disease” below) is reported as 8/10.
Consider `NS(=O)(=O)c1cccc2c1c([N+](=O)[O-])cc1nc(O)c(O)nc12` [NBQX, 2,3-dihydroxy-6-nitro-7-sulfamoyl-benzo(f)quinoxaline, reference compound], for which the Death in data set [2] (30 mg/Kg daily from day 23) is listed as 6/14. The “Phase II Second Peak Mean Score Disease” value in data set [2] (30 mg/Kg daily from day 23, day 37) was found to be 1.75; in data set [2] (30 mg/Kg daily from day 23, day 41) it was 1.88. The “Phase III Secondary Progressive Mean Score Disease” value worked out at 3.31 in data set [2] (30 mg/Kg daily from day 23, day 62) and 3.38 in data set [2] (30 mg/Kg daily from day 23, day 63). For the same compound, the “Suppression of the second phase of EAE (in words)” value in data set [2] (30 mg/Kg, Table 4, FIG. 4) was “showed a tendency to suppress the second phase of EAE”. Besides, in data set [2] (NBQX 30 mg/Kg compared to Compound 20 at 30 and 300 μg/Kg), the “Preventing the chronic disease progression (in words)” value is given as “not as effective as the Compound 20”.
In the case of “2,2-fullerenyl-malonic acid bis(adamantan-1-ylcarbamate-tetraethyleneglycol) ester [Compound 6]”, the “Severity of EAE (in words)” value in data set [1] is on record as “clearly reduce the severity of relapsing-remitting EAE; also recorded: reduction in severity of the disease”. Also, the “Phase II Second Peak Mean Score Disease” value in data set [1] (day 26) is 0.75*; in data set [1] (day 27) it was 0.80. Besides, the “Phase III Third Peak Mean Score Disease” value in data set [1] (day 31) is reported as 0.90*; in data set [1] (day 38), 1.30. Besides, the “Phase IV Secondary Progressive Mean Score Disease” value in data set [1] is 2.85. Further, the “Cumulative Score” value in data set [1] was found to be 90.6. Moreover, the “Prevalence of Disease” value in data set [1] is reported as 9/10. The results for the Maximal aqueous concentration in data set [3] (setting [5]), in data set [3] (setting [6]) and in data set [3] (2.0% DMSO content in final aqueous solution) were 1.18 10^−5 M, 1.38 10^−5 M and 0.036 mg/mL, respectively. Moreover, the “Increase of maximal aqueous solubility” value in data set [3] is given as “more than 2.6 fold”.
In the case of “2,2-fullerenyl-malonic acid bis(adamantan-1-ylcarbamate-diethyleneglycol) ester [Compound 16]”, the “Increase of maximal aqueous solubility” value in data set [3] is given as 20 fold.
For the compound “2,2-fullerenyl-malonic acid bis(adamantan-1-ylcarbamate-poly(n)ethyleneglycol) ester wherein average n=10 [Compound 19]”, the Maximal aqueous concentration in data set [3] (setting [5]) is reported as 1.17 10^−5 M; in data set [3] (setting [6]), 5.12 10^−5 M; in data set [3] (1.0% DMSO content in final aqueous solution) it was 6.97 10^−5 M. For the same compound, the “Increase of maximal aqueous solubility” value in data set [3] is recorded as 6 fold.
On to “2,2-fullerenyl-malonic acid bis(adamantan-1-ylcarbamate-poly(n)ethyleneglycol) ester wherein average n=10 [Compound 20]”, for which, in data set [1], the “Severity of EAE (in words)” value was “clearly reduce the severity of relapsing-remitting EAE; also recorded: reduction in severity of the disease”. For the same compound, the “Phase II Second Peak Mean Score Disease” value in data set [1] (day 26) was 0.70*; in data set [1] (day 27), 0.55*; in data set [2] (30 μg/Kg daily from day 23, day 37), 1.60*; in data set [2] (30 μg/Kg daily from day 23, day 41), 1.50*; in data set [2] (300 μg/Kg daily from day 23, day 37), 2.25; in data set [2] (300 μg/Kg daily from day 23, day 41), 2.25. Moreover, the entries for the “Phase III Third Peak Mean Score Disease” value in data set [1] (day 31) and in data set [1] (day 38) were 0.60* and 0.65*, respectively. In addition, the “Cumulative Score” value in data set [1] is listed as 53.0*. In addition, in data set [1], the “Prevalence of Disease” value is listed as 4/10. Also, the “Severity of the disease, mean disease score (in words)” value in data set [2] (30 μg/Kg and 300 μg/Kg, compared to NBQX treated and untreated mice, FIG. 4) is “reduction in severity of the disease”. Moreover, the Death in data set [2] (30 μg/Kg daily from day 23) is 0/14; in data set [2] (300 μg/Kg daily from day 23) it was 2/14. Also, the “Phase III Secondary Progressive Mean Score Disease” value in data set [2] (30 μg/Kg daily from day 23, day 62) was 2.12*; in data set [2] (30 μg/Kg daily from day 23, day 63), 2.15*; in data set [2] (300 μg/Kg daily from day 23, day 62), 3.08; in data set [2] (300 μg/Kg daily from day 23, day 63), 3.17. Also, the “Protection from progression of chronic EAE (in words)” value in data set [2] (30 μg/Kg daily, compared to 300 μg/Kg) is given as “significantly protect progression of chronic EAE”. Further, in data set [4] (Bielschowsky silver impregnation, day 63 post-immunization, compared to untreated control mice, FIG. 5), the “Axonal density / axonal damage in white matter of spinal cord (in words)” value is “reduction of EAE-derived axonal damage; also recorded: lower reduction in axonal density”. In addition, the “Demyelination of axons in white matter of spinal cord (in words)” value in data set [4] (Luxol fast blue staining, compared to untreated control mice, FIG. 6) is given as “reduction in demyelination of axons”. For the same compound, the “Progression of chronic EAE as damage to neurons (in words)” value in data set [4] (treatment initiated after disease onset, FIGS. 5 and 6) is on record as “lesser damage caused to the neurons”.
